{"source": "patent US20220257706A1", "about": "“EPIDERMAL GROWTH FACTOR RECEPTOR (EGFR) LIGANDS” (NANYANG TECHNOLOGICAL UNIVERSITY, priority 2019, published 2022)", "key": {"[1]": {"target": "EGFR (Homo sapiens, UniProt P00533)", "sequence (P00533 25-1210)": "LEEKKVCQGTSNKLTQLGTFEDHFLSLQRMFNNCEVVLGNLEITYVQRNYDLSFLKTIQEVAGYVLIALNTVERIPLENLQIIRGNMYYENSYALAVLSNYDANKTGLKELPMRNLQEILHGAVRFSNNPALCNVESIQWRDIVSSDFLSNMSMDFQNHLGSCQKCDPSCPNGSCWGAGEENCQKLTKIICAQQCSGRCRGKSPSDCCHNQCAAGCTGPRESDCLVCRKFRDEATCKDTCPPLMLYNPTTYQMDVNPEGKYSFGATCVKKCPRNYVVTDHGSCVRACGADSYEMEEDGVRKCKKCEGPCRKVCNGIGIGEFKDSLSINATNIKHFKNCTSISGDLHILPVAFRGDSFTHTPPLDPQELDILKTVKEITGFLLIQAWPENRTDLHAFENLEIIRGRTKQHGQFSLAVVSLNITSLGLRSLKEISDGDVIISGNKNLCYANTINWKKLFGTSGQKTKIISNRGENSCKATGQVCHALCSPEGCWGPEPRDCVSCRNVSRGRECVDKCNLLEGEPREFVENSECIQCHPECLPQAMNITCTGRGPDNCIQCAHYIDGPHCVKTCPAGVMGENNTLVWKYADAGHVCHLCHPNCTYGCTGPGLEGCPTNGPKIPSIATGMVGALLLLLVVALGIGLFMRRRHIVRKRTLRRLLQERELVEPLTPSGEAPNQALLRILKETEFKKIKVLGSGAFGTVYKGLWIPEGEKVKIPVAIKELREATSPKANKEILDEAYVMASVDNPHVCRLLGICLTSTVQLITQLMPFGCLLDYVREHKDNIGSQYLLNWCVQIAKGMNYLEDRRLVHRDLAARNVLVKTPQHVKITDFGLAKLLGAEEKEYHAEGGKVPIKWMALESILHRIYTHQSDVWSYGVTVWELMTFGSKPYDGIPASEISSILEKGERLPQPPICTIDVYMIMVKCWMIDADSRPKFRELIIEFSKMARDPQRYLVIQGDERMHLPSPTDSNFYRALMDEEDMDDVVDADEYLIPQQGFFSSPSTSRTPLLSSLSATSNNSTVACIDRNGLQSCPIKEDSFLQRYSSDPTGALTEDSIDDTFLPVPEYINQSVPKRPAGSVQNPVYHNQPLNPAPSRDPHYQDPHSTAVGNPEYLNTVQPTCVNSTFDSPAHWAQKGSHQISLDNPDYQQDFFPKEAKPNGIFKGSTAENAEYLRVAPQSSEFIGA", "experiment": "Immunoprecipitation / western blot of EGFR tyrosine phosphorylation in HaCaT cells", "type": "cell-based", "design": "endogenous in cells; host or cells: HaCaT", "details": "5 μM", "method": "Immunoprecipitation was performed using EGFR (D38B1) rabbit monoclonal antibodies conjugated to magnetic beads (Cell Signaling, US). Briefly, the magnetic beads were washed with PBS three times and 50 μg HaCaT cell lysate was added to each tube and allowed to incubate overnight at 4° C. with rotation. After incubation, the magnetic beads were washed five times with PBS. A 6× loading dye with β-mercaptoethanol was added to the resin and heated for 10 min at 85° C. The resultant mixture was centrifuged at 14000 g×1 min and resolved using 10% SDS-PAGE at a 100 V constant for 120 min. Blot transfer was performed on a PVDF membrane (GE healthcare, Sweden) at 250 mA for 120 min on ice. The blot was blocked with 5% BSA TBST before incubating overnight at 4° C. with anti-phosphotyrosine-HRP (R&D systems, US) or anti-EGFR anti-rabbit antibody (1:1000 in 5% BSA TBST; Cell Signaling, US). After incubation, the membrane was washed with TBST at room temperature for three times at 10 min each. The blot was then incubated with secondary anti-rabbit horseradish peroxidase (HRP) (1:5000 in 5% BSA TBST) and was incubated for another 1 h at room temperature. The blot was washed five times 10 min each with TBST at room temperature before the addition of chemiluminescence substrate (Advansta, US) and exposure on X-ray film (Fujifilm, Japan)."}, "[2]": {"system": "HaCaT cells", "experiment": "EdU incorporation assay (DNA synthesis)", "type": "cell-based, human", "method": "EdU incorporation assay was performed using an EdU proliferative kit (iFluor 488) according to manufacturer's instructions. Briefly, 2.5×10^4 HaCaT cells per well were seeded in a 96-well plate. […] Cells were then fixed, permeabilized, and incubated in a reaction mix containing iFluor 488 for 30 min. The nuclei were stained using DAPI. The plates were visualized using a fluorescence microscope."}, "[3]": {"system": "HUVEC-CS cells", "experiment": "Endothelial tube formation assay", "type": "cell-based", "details": "data not shown", "method": "Endothelial tube formation assay was performed using a μ-slide (ibidi, Germany). Briefly, 10 μL of gel matrix (BD Matrigel™ Basement Membrane Matrix) was casted onto each μ-slide well and left to solidify. […] After incubation for 2 h, the wells were photographed using inverted phase-contrast microscope. Images were analyzed for the numbering of branching points using the Wimasis image analysis platform."}, "[4]": {"system": "STZ-induced diabetic C57BL/6 mice", "experiment": "Full-thickness splinted excisional wound healing in streptozotocin-induced diabetic C57BL/6 mice", "type": "in vivo, mouse", "details": "1 nmol/wound topical, five consecutive days", "method": "Full-thickness 5-mm splinted excisional wounding of mice was performed. Briefly, mice were anesthetized using an intraperitoneal injection of sodium pentobarbital (50 mg kg^−1). The hair of the back was shaved with an electric clipper followed by a depilatory cream. Using a 5-mm-diameter sterile biopsy punch, symmetrical full-thickness excisional wounds were created. Splints were placed around the wound using adhesive glue and secured with four interrupted sutures. The wounds and splints were covered with Tegaderm (3M, US). At indicated days within the 14 days post-injury course, wound diameters were measured. The size of wound was calculated from the average of two diameter measurements along the x and y axis.\nDiabetes was induced into C57BL/6 mice by two intraperitoneal injection (80 mg/kg) of STZ at day 1 and 5. Starting from day 8, blood glucose was monitored regularly for two weeks. […] Blood glucose was also monitored at day 14 post-injury to ensure the mice are diabetic."}, "[5]": {"experiment": "Heat stability (100° C., RP-HPLC)", "type": "physicochemical", "details": "100° C.; read-out: calculated t1/2, heat treatment", "method": "Samples were collected at various time points (0, 30, 60, and 120 min)."}, "[6]": {"system": "c-fos", "experiment": "Gene expression analysis (qPCR) of c-fos in HaCaT cells", "type": "cell-based, human", "details": "2 h treatment", "method": "Total RNA was extracted from HaCaT and primary human keratinocytes using PureLink™ RNA mini kit (Thermo Fisher Scientific, US). First-strand cDNA was synthesised from 600 ng of total RNA using SuperScript™ II Reverse Transcriptase and Oligo(dT)12-18 (Thermo Fisher Scientific, US) according to the manufacturer's instructions. Quantitative PCR (qPCR) was performed with iTaq Universal SYBR Green Supermix (Bio-Rad, US) on a CFX96 Touch Real-Time PCR Detection System (Bio-Rad, US) for 40 cycles. PCR reaction (20 μL): 3 μL cDNA, 1 μL primer mix (10 μM), 6 μL DEPC-treated water and 10 μL mastermix. […] GAPDH was used as a housekeeping gene for normalization. Fold changes of gene expressions with c-fos and c-Jun were calculated using the 2^−ΔΔCT method."}, "[7]": {"system": "HaCaT cells", "experiment": "Cell migration scratch assay", "type": "cell-based, human", "details": "data not shown", "method": "Cell migration was monitored using the scratch assay. Briefly, HaCaT cells were seeded into 2 well silicone inserts with a defined gap of 500 μm (ibidi, Germany). […] After incubation for 8 h, the wells were photographed using inverted phase-contrast microscope. Images were analyzed for the percentage of cell-free area using the Wimasis image analysis platform."}, "[8]": {"system": "MEK1/2", "experiment": "Western blot of phosphorylated MEK1/2 in HaCaT cells", "type": "cell-based, human", "details": "5 μM", "method": "Blot transfer was performed onto a PVDF membrane (GE healthcare, Sweden) at 250 mA for 120 min on ice. The blot was blocked with 5% BSA TBST before incubating overnight at 4° C. with anti-P-MEK1/2 rabbit antibody (1:2000 in 5% BSA TBST; Cell Signaling, US), anti-MEK1/2 rabbit antibody (1:2000 in 5% BSA TBST; Cell Signaling, US), anti-P-ERK1/2 rabbit antibody (1:2000 in 5% BSA TBST; Cell Signaling, US), anti-ERK1/2 rabbit antibody (1:2000 in 5% BSA TBST; Cell Signaling, US), and anti-β-actin mouse antibody (1:10000 in 5% BSA TBST; Merck Millipore, US). After incubation, the membrane was washed with TBST at room temperature three times for 10 min each. The blot was then incubated with secondary anti-mouse or anti-rabbit horseradish peroxidase (HRP) (1:5000 in 5% BSA TBST; Cell Signaling, US) and was incubated for another 1 h at room temperature. The blot was washed five times 10 min each with TBST at room temperature before addition of chemiluminescence substrate (Advansta, US) and exposure on X-ray film (Fujifilm, Japan)."}}, "data": [{"compound": "CC[C@H](C)[C@@H]1NC(=O)[C@H](CCC(=O)O)NC(=O)[C@H]([C@@H](C)O)NC(=O)[C@@H]2CSSC[C@@H]3NC(=O)[C@H](Cc4ccccc4)NC(=O)[C@H](CC(N)=O)NC(=O)[C@H](CO)NC(=O)[C@H](CSSC[C@H](NC(=O)[C@@H](N)CCC(N)=O)C(=O)N[C@@H](CCCCN)C(=O)N4CCC[C@H]4C(=O)N[C@@H](CC(N)=O)C(=O)NCC(=O)N[C@@H](C)C(=O)N[C@@H](CCCCN)C(=O)N2)NC(=O)[C@H](CSSC[C@@H](C(=O)N[C@@H](C)C(=O)N[C@@H](CC(N)=O)C(=O)N[C@@H](CCCNC(=N)N)C(=O)O)NC(=O)[C@H]([C@@H](C)O)NC(=O)CNC(=O)[C@H](CO)NC(=O)[C@H](CCCCN)NC(=O)[C@H](CCC(N)=O)NC(=O)CNC(=O)[C@H](C)NC(=O)[C@H](Cc2ccc(O)cc2)NC(=O)[C@H](CCCNC(=N)N)NC(=O)[C@H](CC(C)C)NC3=O)NC(=O)[C@@H]2CCCN2C(=O)[C@@H]2CCCN2C(=O)[C@H]([C@@H](C)CC)NC(=O)[C@H](CO)NC1=O", "note": "[bleogen pB1]", "values": [{"measurement": "phosphorylation of EGFR", "setting": "[1]", "value": "induces the phosphorylation"}, {"measurement": "DNA synthesis of HaCaT cells (EdU incorporation)", "setting": "[2]", "value": "enhances DNA synthesis"}, {"measurement": "endothelial cell tube formation", "setting": "[3]", "value": "accelerate"}, {"measurement": "wound healing rate vs vehicle control in STZ-induced diabetic mice", "setting": "[4]", "value": "healed at a significantly faster rate starting from day 4 post-injury"}, {"measurement": "half-life at 0.1 M", "setting": "[5]", "value": "> 500", "unit": "min"}, {"measurement": "mRNA expression of c-fos", "setting": "[6]", "value": "significantly upregulate"}, {"measurement": "HaCaT cell migration", "setting": "[7]", "value": "accelerate"}, {"measurement": "phosphorylation of MEK1/2", "setting": "[8]", "value": "induces the phosphorylation"}]}]}
